From PubChem BioAssay (NCI)
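Exposure lasted 48 hours, with cells grown in 96-well plates and compounds tested at five concentrations. Abbreviation: GI50, concentration required for 50% inhibition of growth. TGI denotes the concentration required for complete inhibition of growth.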

Assays:
Assay in all cases: NCI tumour cell line growth inhibition, 48 h
[1] = test system: MDA-MB-231 breast
[2] = test system: SW-620 colon
[3] = test system: LOX IMVI melanoma
[4] = test system: OVCAR-4 ovarian
[5] = test system: KM12 colon
[6] = test system: CAKI-1 renal
[7] = test system: HT29 colon
[8] = test system: NCI/ADR-RES ovarian
[9] = test system: U251 CNS
[10] = test system: RPMI-8226 leukemia
[11] = test system: OVCAR-3 ovarian
[12] = test system: SF-268 CNS
[13] = test system: UACC-257 melanoma
[14] = test system: SNB-75 CNS
[15] = test system: SK-OV-3 ovarian
[16] = test system: IGROV1 ovarian
[17] = test system: BT-549 breast
[18] = test system: T-47D breast
[19] = test system: DU-145 prostate
[20] = test system: OVCAR-8 ovarian
[21] = test system: A549 NSCLC
[22] = test system: OVCAR-5 ovarian
[23] = test system: HCT-116 colon
[24] = test system: HOP-92 NSCLC
[25] = test system: HCC-2998 colon
[26] = test system: MDA-MB-435
[27] = test system: SF-295 CNS
[28] = test system: SK-MEL-2 melanoma
[29] = test system: EKVX NSCLC
[30] = test system: UO-31 renal
[31] = test system: SNB-19 CNS
[32] = test system: SR leukemia
[33] = test system: MALME-3M melanoma
[34] = test system: K-562 leukemia
[35] = test system: TK-10 renal
[36] = test system: HOP-62 NSCLC
[37] = test system: CCRF-CEM leukemia
[38] = test system: HS 578T breast
[39] = test system: UACC-62 melanoma
[40] = test system: SN12C renal
[41] = test system: 786-0 renal
[42] = test system: SF-539 CNS
[43] = test system: NCI-H522 lung
[44] = test system: SK-MEL-28 melanoma
[45] = test system: NCI-H23 lung
[46] = test system: HL-60(TB) leukemia
[47] = test system: SK-MEL-5 melanoma
[48] = test system: M14 melanoma
[49] = test system: ACHN renal
[50] = test system: MOLT-4 leukemia
[51] = test system: NCI-H226 lung
[52] = test system: NCI-H460 lung
[53] = test system: COLO 205 colon
[54] = test system: MCF7 breast
[55] = test system: PC-3 prostate
[56] = test system: A498 renal
[57] = test system: HCT-15 colon
[58] = test system: RXF 393 renal

## O=C(CCCCCCNC(=O)C(O)(O)C(F)(F)F)Nc1ccc(-c2ccccc2)cc1
[1]
  GI50: 2.84 µM
  TGI: 10.7 µM
[2]
  GI50: 1.8 µM
  TGI: 7.24 µM
[3]
  GI50: 1.96 µM
  TGI: 6.29 µM
[4]
  GI50: 11 µM
  TGI: > 33.2 µM
[5]
  GI50: 3.84 µM
  TGI: 9.23 µM
[6]
  GI50: 5.74 µM
  TGI: 17.5 µM
[7]
  GI50: 3.77 µM
  TGI: > 33.2 µM
[8]
  GI50: 3.99 µM
  TGI: 12.4 µM
[9]
  GI50: 3.62 µM
  TGI: 10.9 µM
[10]
  GI50: 2.32 µM
  TGI: > 33.2 µM
[11]
  GI50: 3.39 µM
  TGI: 8.2 µM
[12]
  GI50: 5.98 µM
  TGI: 14.3 µM
[13]
  GI50: 4.67 µM
  TGI: 14.5 µM
[14]
  GI50: 2.92 µM
  TGI: > 33.2 µM
[15]
  GI50: 4.31 µM
  TGI: 21.6 µM
[16]
  GI50: 3.9 µM
  TGI: 10.6 µM
[17]
  GI50: 4.21 µM
  TGI: 13.2 µM
[18]
  GI50: 2.96 µM
  TGI: 25.3 µM
[19]
  GI50: 4.78 µM
  TGI: 32.7 µM
[20]
  GI50: 3.25 µM
  TGI: > 33.2 µM
[21]
  GI50: 6.04 µM
  TGI: 28.8 µM
[22]
  GI50: 1.62 µM
  TGI: 9.14 µM
[23]
  GI50: 1.27 µM
  TGI: 7.08 µM
[24]
  GI50: 0.74 µM
  TGI: 4.18 µM
[25]
  GI50: 4.91 µM
  TGI: 9.88 µM
[26]
  GI50: 3.55 µM
  TGI: 32.4 µM
[27]
  GI50: 2.53 µM
  TGI: 7.49 µM
[28]
  GI50: 3.31 µM
  TGI: 8.97 µM
[29]
  GI50: 5.26 µM
  TGI: > 33.2 µM
[30]
  GI50: 3.11 µM
  TGI: 8.88 µM
[31]
  GI50: 4.63 µM
  TGI: 10.3 µM
[32]
  GI50: 1.43 µM
  TGI: > 33.2 µM
[33]
  GI50: 1.6 µM
  TGI: 10.2 µM
[34]
  GI50: 1.58 µM
  TGI: > 33.2 µM
[35]
  GI50: 1.63 µM
  TGI: > 33.2 µM
[36]
  GI50: 4.76 µM
  TGI: 29.4 µM
[37]
  GI50: 1.84 µM
  TGI: > 33.2 µM
[38]
  GI50: 4.15 µM
  TGI: 25.3 µM
[39]
  GI50: 1.31 µM
  TGI: 5.39 µM
[40]
  GI50: 4.21 µM
  TGI: 16 µM
[41]
  GI50: 4.34 µM
  TGI: 11.7 µM
[42]
  GI50: 4.61 µM
  TGI: 13 µM
[43]
  GI50: 3.81 µM
  TGI: 20.5 µM
[44]
  GI50: 2.09 µM
  TGI: 8.52 µM
[45]
  GI50: 4.28 µM
  TGI: 13.6 µM
[46]
  GI50: 2.64 µM
  TGI: > 33.2 µM
[47]
  GI50: 1.94 µM
  TGI: 6.27 µM
[48]
  GI50: 3.82 µM
  TGI: 12.5 µM
[49]
  GI50: 2.85 µM
  TGI: 9.22 µM
[50]
  GI50: 1.32 µM
  TGI: > 33.2 µM
[51]
  GI50: 7.55 µM
  TGI: 26.6 µM
[52]
  GI50: 3.24 µM
  TGI: 11.4 µM
[53]
  GI50: 4.03 µM
  TGI: 11.8 µM
[54]
  GI50: 5.57 µM
  TGI: 30 µM
[55]
  GI50: 3.78 µM
  TGI: 19 µM
[56]
  GI50: 0.7 µM
  TGI: 6.41 µM
[57]
  GI50: 4.73 µM
  TGI: 9.8 µM

## O=S(=O)(NC1CC2CCC1C2)c1ccc2c(c1)C(=NO)c1cc(S(=O)(=O)NC3CC4CCC3C4)ccc1-2 (stereo not given)
[1]
  GI50: 0.106 µM
  TGI: 3.13 µM
[2]
  GI50: 0.527 µM
  TGI: 3.87 µM
[3]
  GI50: 0.0182 µM
  TGI: 0.0371 µM
[4]
  GI50: 0.677 µM
  TGI: 3.37 µM
[5]
  GI50: 0.162 µM
[6]
  GI50: 0.158 µM
  TGI: 0.344 µM
[7]
  GI50: 0.22 µM
  TGI: 3.01 µM
[8]
  GI50: 7 µM
  TGI: > 100 µM
[9]
  GI50: 0.371 µM
  TGI: 3.67 µM
[10]
  GI50: 0.238 µM
  TGI: > 100 µM
[11]
  GI50: 0.598 µM
  TGI: > 100 µM
[12]
  GI50: 2.38 µM
  TGI: 99.5 µM
[13]
  GI50: > 100 µM
  TGI: > 100 µM
[14]
  TGI: > 100 µM
[15]
  GI50: 23.2 µM
  TGI: > 86.7 µM
[16]
  GI50: 0.0262 µM
  TGI: 0.132 µM
[17]
  GI50: 1.92 µM
  TGI: > 100 µM
[18]
  GI50: 1.27 µM
  TGI: 5.57 µM
[19]
  GI50: 0.348 µM
  TGI: 8.8 µM
[20]
  GI50: 0.139 µM
  TGI: 2.29 µM
[21]
  GI50: 1.83 µM
  TGI: 22.4 µM
[22]
  GI50: 0.453 µM
  TGI: 40.5 µM
[23]
  GI50: 0.655 µM
  TGI: > 100 µM
[24]
  GI50: 0.152 µM
  TGI: 0.426 µM
[25]
  GI50: 3.75 µM
  TGI: > 100 µM
[26]
  GI50: 1.86 µM
  TGI: > 100 µM
[27]
  GI50: 2.31 µM
  TGI: 8.91 µM
[28]
  GI50: 66.7 µM
  TGI: > 100 µM
[29]
  GI50: 0.0521 µM
  TGI: 0.201 µM
[30]
  GI50: 0.0186 µM
  TGI: 0.0376 µM
[31]
  GI50: 28.9 µM
  TGI: > 100 µM
[32]
  GI50: 0.0179 µM
  TGI: 0.0563 µM
[33]
  GI50: 0.0438 µM
  TGI: 0.173 µM
[34]
  GI50: 0.444 µM
  TGI: > 100 µM
[35]
  GI50: 3.1 µM
[36]
  GI50: 0.268 µM
  TGI: 4.95 µM
[37]
  GI50: 0.0257 µM
  TGI: 0.0726 µM
[38]
  GI50: 31.6 µM
  TGI: > 100 µM
[39]
  GI50: 36 µM
  TGI: > 100 µM
[40]
  GI50: 0.883 µM
  TGI: 25.8 µM
[41]
  GI50: 0.179 µM
  TGI: 0.326 µM
[42]
  GI50: 0.182 µM
  TGI: 0.396 µM
[43]
  GI50: 0.16 µM
  TGI: 1.02 µM
[44]
  GI50: 60.2 µM
  TGI: > 100 µM
[45]
  GI50: 0.0394 µM
  TGI: 0.182 µM
[47]
  GI50: > 100 µM
  TGI: > 100 µM
[48]
  GI50: 4.42 µM
  TGI: > 100 µM
[49]
  GI50: 0.0742 µM
  TGI: 0.986 µM
[50]
  GI50: 13.3 µM
  TGI: > 100 µM
[51]
  GI50: 22.2 µM
  TGI: > 100 µM
[52]
  GI50: 0.437 µM
  TGI: 14.2 µM
[53]
  GI50: 23.3 µM
  TGI: > 100 µM
[54]
  GI50: 0.51 µM
  TGI: > 100 µM
[55]
  GI50: 1.86 µM
  TGI: 18.3 µM
[56]
  GI50: > 100 µM
  TGI: > 100 µM
[58]
  GI50: 0.292 µM
  TGI: 30.2 µM
[57]
  GI50: 0.592 µM
  TGI: > 100 µM
